Here are results for two compounds from patent publication US20230310348A1, “USE OF ALVERINE OR ITS DERIVATIVES FOR THE TREATMENT OF MITOCHONDRIAL DISEASES OR DYSFUNCTION ASSOCIATED WITH MITOCHONDRIAL COMPLEX I DEFICIENCIES” (ASSOCIATION FRANCAISE CONTRE LES MYOPATHIES, priority 2020, published 2023).

Each structure is given as a SMILES string.

Data set [1] deals with nuo-51^A357V mutant of Podospora anserina. Put plainly: drug drop test: restoration of thermosensitive growth (halo). It counts as cell-based. Conditions: 10 mM in DMSO on 6 mm discs, 33° C.
Procedure: The mutant mycelium, scratched from a 2 days culture on M2 plates at 28° C. was mixed in a FastPrep apparatus and spread on fresh square plates. 6 mm cellulose discs are then dropped and spotted with the various compounds at 10 mM in DMSO and plates were incubated at 33° C. Within 4 to 6 days a putative resumption of growth around filters (i.e. halo) is observed.
The conditions of data set [2]: in e.g. alcohol or chloroform; cited from earlier work.

For the compound `CCN(CCCc1ccccc1)CCCc1ccc(O)cc1` [4-Hydroxy Alverine, 4-hydroxy Alverine], the “toxicity in drug drop test” value in data set [1] is “without toxicity”. Moreover, in data set [1] (4 to 6 days), the “thermosensitive growth of the mutant (halo around filter)” value was “rescue the growth”.
For `CCN(CCCc1ccccc1)CCCc1ccccc1` [Alverine, N-ethyl-3-phenyl-N-(3-phenylpropyl)propan-1-amine], the solubility entry in data set [2] is “high solubility”.
